From ChEMBL document CHEMBL1134239, “Synthesis and antitumor activity of novel paclitaxel-chlorambucil hybrids” (Bioorg Med Chem Lett, 2001)

Assays:
[1] = test system: M109; assay: Compound was tested in vivo against M109 using Madison murine lung carcinoma (M109) tumor model; format: functional, Mus musculus
[2] = target: Tubulin alpha chain (Sus scrofa) (UniProt P02550); assay: Compound was tested in vitro for inhibition of tubulin polymerization, expressed as ratio to that obtained for paclitaxel; format: functional
[3] = test system: HCT-116; assay: Compound was tested for cytotoxicity against human colon tumor cell line (HCT116); format: functional, cell-based

Sequence of Tubulin alpha chain (Sus scrofa) (P02550 whole entry, looked up): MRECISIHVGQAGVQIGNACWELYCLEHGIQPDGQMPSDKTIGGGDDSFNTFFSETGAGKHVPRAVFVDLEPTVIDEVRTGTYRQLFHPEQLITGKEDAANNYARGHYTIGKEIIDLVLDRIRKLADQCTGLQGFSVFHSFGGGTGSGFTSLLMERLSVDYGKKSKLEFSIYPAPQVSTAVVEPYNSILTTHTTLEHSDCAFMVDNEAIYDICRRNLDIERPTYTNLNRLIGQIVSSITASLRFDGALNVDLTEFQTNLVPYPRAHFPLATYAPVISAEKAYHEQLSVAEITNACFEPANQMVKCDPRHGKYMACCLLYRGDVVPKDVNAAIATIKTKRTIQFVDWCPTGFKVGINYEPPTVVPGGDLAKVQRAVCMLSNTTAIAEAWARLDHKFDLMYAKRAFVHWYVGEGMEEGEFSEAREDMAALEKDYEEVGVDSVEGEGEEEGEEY

Structure (SMILES) | T/C [1] [%] | Tubulin polymerization [2] | IC50 [3] [nM]
CC(=O)OCCN(CCOC(C)=O)C(=O)OCO[C@H]1C[C@H]2OC[C@@]2(OC(C)=O)C2[C@H](OC(=O)c3ccccc3)[C@]3(O)C[C@H](OC(=O)[C@H](O)[C@@H](NC(=O)c4ccccc4)c4ccccc4)C(C)=C([C@@H](OC(C)=O)C(=O)[C@@]21C)C3(C)C (some centres undefined) | 17 | 6.5 | 3.9
CC(=O)O[C@H]1C(=O)[C@@]2(C)C([C@H](OC(=O)c3ccccc3)[C@]3(O)C[C@H](OC(=O)[C@H](O)[C@@H](NC(=O)c4ccccc4)c4ccccc4)C(C)=C1C3(C)C)[C@]1(OC(C)=O)CO[C@@H]1C[C@@H]2OCOC(=O)N(CCOC(=O)CCCc1ccc(N(CCCl)CCCl)cc1)CCOC(=O)CCCc1ccc(N(CCCl)CCCl)cc1 (some centres undefined) | 224 | 70 | 24
CC(=O)O[C@H]1C(=O)[C@@]2(C)[C@H]([C@H](OC(=O)c3ccccc3)[C@]3(O)C[C@H](OC(=O)[C@H](O)[C@@H](NC(=O)c4ccccc4)c4ccccc4)C(C)=C1C3(C)C)[C@]1(OC(C)=O)CO[C@@H]1C[C@@H]2O [PACLITAXEL] | 246 | 1 | –
CC(=O)O[C@H]1C(=O)[C@@]2(C)C([C@H](OC(=O)c3ccccc3)[C@]3(O)C[C@H](OC(=O)[C@H](O)[C@@H](NC(=O)c4ccccc4)c4ccccc4)C(C)=C1C3(C)C)[C@]1(OC(C)=O)CO[C@@H]1C[C@@H]2OCOC(=O)CCCc1ccc(N(CCCl)CCCl)cc1 (some centres undefined) | 155 | 62 | 4.6
CC(=O)O[C@H]1C(=O)[C@@]2(C)C([C@H](OC(=O)c3ccccc3)[C@]3(O)C[C@H](OC(=O)[C@H](O)[C@@H](NC(=O)c4ccccc4)c4ccccc4)C(C)=C1C3(C)C)[C@]1(OC(C)=O)CO[C@@H]1C[C@@H]2OC(=O)CCCc1ccc(N(CCCl)CCCl)cc1 (some centres undefined) | 127 | 53 | 161
